# According to publication PMC11484510, “Antibacterial activity of structurally diverse natural prenylated isobavachalcone derivatives” (RSC Advances, 2024):
# Entries after “also recorded” stand apart in the source; their conditions may differ. Where two headings read alike, the source gives them in different places.
# Tests used:
# [1] = test system: S. aureus ATCC 29213; assay: Time-kill assay; type: cell-based
# [2] = test system: S. aureus ATCC 29213; assay: MIC, broth microdilution (CLSI), Alamar blue; type: cell-based; settings: S. aureus ATCC 29213, 24 hours at 37 °C, read-out: Minimum inhibitory concentration (MIC) S. aureus
# Excerpt: (§1) The bacterial strains S. aureus ATCC 29213, MRSA ATCC 15187, E. coli ATCC 25922, and P. aeruginosa ATCC 27853 were obtained from ATCC (American Type Culture Collection). Cation-adjusted Mueller–Hinton broth (MHB; Becton–Dickinson, Cockeysville, MD) was used to determine the minimum inhibitory concentration (MIC). Mueller–Hinton agar (MHA; Becton–Dickinson) was used for minimum bactericidal concentration (MBC) studies. Alamar blue (Himedia) was used to detect the MIC value.
# (§2) The antibacterial activity of the compounds against S. aureus ATCC 29213, MRSA ATCC 15187, E. coli ATCC 25922, and P. aeruginosa ATCC 27853 was determined through a broth microdilution method according to the guidelines of the Clinical and Laboratory Standards Institute (CLSI).[50] […] Growth control and media control were employed along with 2% DMSO as vehicle control.
# (§3) In a 96-well flat bottom plate, the test compounds were two-fold serially diluted in Mueller Hinton Broth (MHB). The final concentrations of the compounds ranged from 100 to 0.08 μM. 100 μL of standardized bacterial inoculum with turbidity equivalent to 0.5 McFarland standard (1.5 × 10^8 CFU mL^−1) was diluted 1 : 100 (1.5 × 10^6 CFU mL^−1) in Mueller Hinton Broth and inoculated in the plates.[51] The plates were incubated for 24 hours at 37 °C. After incubation, 10 μL of freshly prepared Alamar blue (Himedia) was added to each well of the plate, and plates were further incubated at 37 °C for 30 minutes. After incubation, the fluorescence was measured at excitation/emission of 540–570/580–610 nm. The percentage inhibition and viability were calculated for the controls, and the Gompertz curve was utilized to estimate the minimum inhibitory concentration.
# [3] = test system: P. aeruginosa ATCC 27853; assay: MIC, broth microdilution (CLSI), Alamar blue; type: cell-based; settings: P. aeruginosa ATCC 27853, 24 hours at 37 °C, read-out: Minimum inhibitory concentration (MIC) P. aeruginosa
# Excerpt: as §1, §2, §3
# [4] = test system: E. coli ATCC 25922; assay: MIC, broth microdilution (CLSI), Alamar blue; type: cell-based; settings: E. coli ATCC 25922, 24 hours at 37 °C, read-out: Minimum inhibitory concentration (MIC) E. coli
# Excerpt: as §1, §2, §3
# [5] = test system: S. aureus ATCC 29213; assay: MBC, plating on MHA; type: cell-based; settings: Staphylococcus aureus, ATCC29213; more than 99.9% of the cells killed; read-out: Minimum bactericidal concentration (MBC) S. aureus
# Excerpt: as §1
# (§4) MBC is defined as the lowest concentration of the compound at which more than 99.9% of the cells were killed compared with the growth control. The minimum compound concentration at which no visible bacterial growth was observed was taken as the Minimum Bactericidal Concentration (MBC).[50]
# [6] = test system: P. aeruginosa ATCC 27853; assay: MBC, plating on MHA; type: cell-based; settings: Pseudomonas aeruginosa, ATCC27853; more than 99.9% of the cells killed; read-out: Minimum bactericidal concentration (MBC) P. aeruginosa
# Excerpt: as §1, §4
# [7] = Cell viability assay (MTT); type: cell-based, murine; settings: mouse, RAW 264.7 macrophage cells; RAW 264.7 macrophage cell line, MTT assay
# Description: RAW 264.7 cells were acquired from the American type culture collection (ATCC, Manassas, VA) and cultured in Dulbecco's modified eagle's medium (DMEM, Gibco, Life Technologies, NY) supplemented with 10% fetal bovine serum (FBS) at 37 °C and 5% CO2. MTT dye (Himedia) was used to detect CC50 values. The antibiotics ciprofloxacin hydrochloride monohydrate (Himedia), kanamycin sulfate (Himedia), and vancomycin (Himedia) were used for reference in microbiological assays.
# The effect of compounds (IBC, IBC-2, and IBC-3) on the viability of cells was evaluated at different concentrations against macrophage cell lines through the 3-(4,5-dimethylthiazol2-yl)-2, 5-diphenyltetrazolium bromide (MTT) assay. The RAW 264.7 cells are monocyte/macrophage-like cells originating from an Abelson leukemia virus-transformed cell line derived from BALB/c mice. Due to their reliability and consistency, these cell lines are widely utilized for both in vitro and in vivo analyses.[52] The MTT assay is a colorimetric assay used to measure the viability and cytotoxicity of cells. The cells (2 × 10^4 cells per well) were grown at 37 °C with 5% CO2 for 48 hours, then exposed to compounds with different concentrations. […] After 20–21 hours, 20 μL of MTT dye at 2.5 mg mL^−1 concentration was added to each well and incubated for 4 hours. 100 μL DMSO solubilized the water-insoluble purple and white formazan produced.[53] The formation of the formazan salt by mitochondrial dehydrogenases was measured at 570.0 nm after incubating for 20 min. The percentage cytotoxicity was calculated with respect to the untreated cells, and the CC50 value was calculated. CC50 was defined as the concentration of an inhibitor that reduces cellular activities by 50% compared to untreated control cultures. The CC50 values were calculated as the concentration where the absorbance was reduced by 50% using GraphPad Prism software.[54] The selectivity index (SI) determines the safety profile of the compound. It is calculated as the ratio of compound concentration at which 50% of cell growth is inhibited compared to untreated cells (CC50) to the effective inhibiting concentration against bacterial strain (MIC). The high SI (>10 fold of MIC) of a drug is proven to have a favorable safety profile.[28] Selectivity index (SI) = CC50 of the compound (μM)/MIC of the compound (μM).
# [8] = test system: S. aureus; assay: Cell integrity analysis by PI staining; type: cell-based; settings: 1× MIC and 2× MIC, 30 minutes, compared to the untreated cells
# Description: Propidium iodide (PI) indicates cell integrity, emitting a red fluorescence signal. PI's polar and hydrophilic nature impedes its entrance within active bacterial cells, but within perforated dead cells, it can easily bind to nucleic acid (DNA/RNA).[32,60]S. aureus bacterial cells were incubated overnight at 37 °C and diluted further 1 : 100 in Mueller Hinton Broth (MHB). The diluted culture was grown until its OD600 reached 0.5. […] Vancomycin was used as a drug control at 1× MIC, while untreated bacterial cells were used as growth control. The samples were centrifuged at 5000 rpm speed at 4 °C temperature for 10 minutes, and the pellet was washed two times using phosphate-buffered saline pH-7.4 (PBS). To stain the sample (dead cells), 3 μL PI of 20.0 mM concentration was added to the 1 mL solution (pellet resuspended in PBS) and incubated for 15 minutes. To remove the dye, the samples were centrifuged again and washed with PBS once. The final pellet was resuspended in 1 mL of PBS, and 30 μL of each undiluted sample was used to obtain fluorescence imaging. The cells were observed under fluorescence microscopy.[61]
structure (smiles),measurement,setting,value
"CC(C)=CCc1c(O)ccc2c1O/C(=C\c1ccc(O)cc1)C2=O [IBC-3, (Z)-6-hydroxy-2-(4-hydroxybenzylidene)-7-(3-methylbut-2-en-1-yl)benzofuran-3(2H)-one]",CFU count of S. aureus ATCC 29213 in time-kill study,"[1]; 2× MIC and 4× MIC, with increasing time (up to 24 h)",below the detection limit
same,Time-kill profile,"[1]; MIC, 2× MIC, 4× MIC, 1 h to 24 h, 37 °C",concentration-dependent killing effect; also recorded: concentration and time-dependent killing effects
same,MIC,[2],10 µM
same,MIC,"[2]; Staphylococcus aureus, ATCC29213",10 µM
same,MIC,[3],24 µM
same,MIC,"[3]; Pseudomonas aeruginosa, ATCC27853, 24 h",24 µM
same,MIC,[4],23 µM
same,MIC,"[4]; Escherichia coli, ATCC25922",23 µM
same,MBC,[5],25 µM
same,MBC,[6],100 µM
same,CC50,[7],50 µM
same,PI red fluorescence (cell integrity),[8],notably increased intensity of red fluorescence
